Assay results: patent publication EP4772513A1, “PI3K-ALPHA INHIBITOR AND USE THEREOF” (TYK Medicines (Zhengzhou), Inc., priority 2023, dated 2025)

Assays:
[1] = system: Human breast cancer cells SK-BR-3 (WT); assay: Cell proliferation inhibition assay (CTG), SK-BR-3 (WT); type: cell-based; details: Homo sapiens, 72 h, SK-BR-3 (WT) cells, 3 days incubation, CTG readout
Experimental: (§1) Cell Proliferation Inhibition Assay
(§2) 1. Experimental Materials
(§3) II. Experimental Protocol
(§4) • a) Cell suspension was prepared; • b) The medium was removed from the culture flask; • c) The cells were rinsed once with PBS; • d) Trypsin was added for digestion, and the cells were centrifuged and collected; • e) The cells were resuspended in medium, counted and adjusted to an appropriate concentration; • f) 100 µL of cell suspension was added to each well of a 96-well plate. One plate was used for each cell line, which was incubated overnight in a 37 °C, 5% CO2 incubator.
(§5) 2. Treatment of Compounds
(§6) • a) Serial dilutions of the test compounds were prepared: The compound was prepared as a 10 mM stock solution. 18 µL of the stock solution was dissolved in 982 µL of the culture medium containing DMSO, followed by 4-fold serial dilutions in culture medium containing 0.5% DMSO to give 9 concentrations. The concentrations of the diluted compound were as follows: 180000 nM, 45000 nM, 11250 nM, 2812.5 nM, 703.13 nM, 175.78 nM, 43.95 nM, 10.99 nM, and 2.75 nM. • b) After thorough mixing, 20 µL of each compound solution was added to the cell plate containing 100 µL of cells per well. Each concentration was tested in triplicate. Final concentrations of the compound were as follows: 30000 nM, 7500 nM, 1875 nM, 468.75 nM, 117.188 nM, 29.30 nM, 7.32 nM, 1.83 nM, and 0.46 nM. • c) The cells were transferred into the incubator and incubated for 3 days.
(§7) The cell plate was removed, 25 µL of CTG reagent was added to each well of the 96-well plate, the mixture was shook on a plate shaker at room temperature for 10 minutes, and the plate was read.
(§8) The cell survival rate was calculated using the following formula (% Cell Survival): % Cell Survival = 100% × (OD_Sample−OD_LCave)/(OD_HC−OD_LCave) [formula] • OD_HC: Reading of the 0.1‰ DMSO control group • OD_Sample: Reading of cells treated with compound • OD_LCave: Reading of blank medium
(§9) Analyzed by Prism: Dose-response-Inhibition - Log (inhibitor) vs response (three parameters for the best fit).

[2] = system: Human breast cancer cells T47D (H1047R); assay: Cell proliferation inhibition assay (CTG), T47D (H1047R); type: cell-based; details: Homo sapiens, 72 h, 3 days incubation, CTG readout
Experimental: as §1, §2, §3, §4, §5, §6, §7, §8, §9

IC50 [1] [µM] | IC50 [2] [µM] | Structure (SMILES)
> 5 | ≤ 0.5 | Cc1cc([C@@H](C)Nc2ccccc2C(=O)O)c2oc3c(c(=O)c2c1)CCN(S(=O)(=O)N1CCO[C@H](C)C1)C3 [Compound C144]
> 5 | ≤ 0.5 | C[C@@H](Nc1ccc(Cl)nc1C(=O)O)c1cc(F)cc2c(=O)c3c(oc12)CN(S(=O)(=O)c1ccccc1C#N)CC3 [Compound C90]
> 5 | ≤ 0.5 | Cc1cc([C@@H](C)Nc2ccccc2C(=O)O)c2oc3c(c(=O)c2c1)CCN(S(=O)(=O)c1cccc2c1CCO2)C3 [Compound C149]
> 5 | ≤ 0.5 | C[C@@H](Nc1ccc(Cl)nc1C(=O)O)c1cc(F)cc2c(=O)c3c(oc12)CN(S(=O)(=O)c1cc(F)cc(F)c1F)CC3 [Compound C129]
> 5 | ≤ 0.5 | Cc1cc([C@@H](C)Nc2ccccc2C(=O)O)c2oc3c(c(=O)c2c1)CCN(S(=O)(=O)N1CCOC(C)(C)C1)C3 [Compound C142]
> 5 | ≤ 0.5 | Cc1cnn(C)c1S(=O)(=O)N1CCc2c(oc3c([C@@H](C)Nc4ccccc4C(=O)O)cc(F)cc3c2=O)C1 [Compound C159]
> 5 | ≤ 0.5 | C[C@@H](Nc1ccc(Cl)nc1C(=O)O)c1cc(F)cc2c(=O)c3c(oc12)CN(S(=O)(=O)N1CCOC[C@@H]1C)CC3 [Compound C117]
> 5 | ≤ 0.5 | COc1cccc(S(=O)(=O)N2CCc3c(oc4c([C@@H](C)Nc5ccc(Cl)nc5C(=O)O)cc(F)cc4c3=O)C2)c1 [Compound C97]
> 5 | 0.5 to 2 | Cc1cc([C@@H](C)Nc2ccccc2C(=O)O)c2oc3c(c(=O)c2c1)CCN(C1CC2CCC1C2)C3 (some centres unmarked) [Compound C173]
> 5 | 0.5 to 2 | C[C@@H](Nc1ccc(Cl)nc1C(=O)O)c1cc(F)cc2c(=O)c3c(oc12)CN(S(=O)(=O)c1ccc(C#N)cc1)CC3 [Compound C92]
> 5 | ≤ 0.5 | Cc1cc(C(C)Nc2ccccc2C(=O)O)c2oc3c(c(=O)c2c1)CCN(S(=O)(=O)c1ccccc1)C3 (single isomer, unassigned) [Compound C61]
> 5 | ≤ 0.5 | Cc1cc(C(C)Nc2ccccc2C(=O)O)c2oc3c(c(=O)c2c1)CCN(C(c1ccccc1)C(F)(F)F)C3 (single isomer, unassigned) [Compound C207]
> 5 | ≤ 0.5 | C[C@@H](Nc1ccc(Cl)nc1C(=O)O)c1cc(F)cc2c(=O)c3c(oc12)CN(S(=O)(=O)c1ccc(F)cc1)CC3 [Compound C95]
> 5 | ≤ 0.5 | C[C@@H](Nc1ccc(Cl)nc1C(=O)O)c1cc(F)cc2c(=O)c3c(oc12)CN(S(=O)(=O)c1ccccc1F)CC3 [Compound C93]
> 5 | ≤ 0.5 | Cc1cc([C@@H](C)Nc2ccccc2C(=O)O)c2oc3c(c(=O)c2c1)CCN(c1ccccn1)C3 [Compound C172]
> 5 | 0.5 to 2 | C[C@@H](Nc1ccc(Cl)nc1C(=O)O)c1cc(F)cc2c(=O)c3c(oc12)CN(S(=O)(=O)c1cccc(=O)n1C)CC3 [Compound C124]
> 5 | ≤ 0.5 | Cc1nn(C)c(C)c1S(=O)(=O)N1CCc2c(oc3c([C@@H](C)Nc4ccc(Cl)nc4C(=O)O)cc(F)cc3c2=O)C1 [Compound C125]
> 5 | ≤ 0.5 | Cc1noc(C)c1S(=O)(=O)N1CCc2c(oc3c([C@@H](C)Nc4ccccc4C(=O)O)cc(F)cc3c2=O)C1 [Compound C140]
> 5 | ≤ 0.5 | CC1CN(S(=O)(=O)N2CCc3c(oc4c(C(C)Nc5ccc(Cl)nc5C(=O)O)cc(F)cc4c3=O)C2)CC(C)O1 (centres unmarked) [Compound C133]
